# In the NIST ThermoML archive (doi:10.1021/je0342825):
# Numbers after ± are expanded uncertainties.
# Assay: xn = mol fraction of the nth substance listed
# Settings: 101.3 kPa, Liquid
compound,measurement,setting,value
O [water] + CC(=O)O,viscosity,"293.15 K, x2 = 0",1.003 ± 0.013 mPa·s
same,viscosity,"298.15 K, x2 = 0",0.89 ± 0.012 mPa·s
same,viscosity,"303.15 K, x2 = 0",0.797 ± 0.011 mPa·s
CCOC(C)=O [ethyl acetate] + CC(=O)O,mass density,"293.15 K, x2 = 0",900.52 ± 0.3 kg/m3
same,speed of sound,"293.15 K, x2 = 0",1163 ± 1 m/s
same,viscosity,"293.15 K, x2 = 0",0.452 ± 0.007 mPa·s
same,mass density,"298.15 K, x2 = 0",894.43 ± 0.31 kg/m3
same,speed of sound,"298.15 K, x2 = 0",1140 ± 1 m/s
same,viscosity,"298.15 K, x2 = 0",0.426 ± 0.006 mPa·s
same,mass density,"303.15 K, x2 = 0",888.3 ± 0.32 kg/m3
same,speed of sound,"303.15 K, x2 = 0",1118 ± 1 m/s
same,viscosity,"303.15 K, x2 = 0",0.403 ± 0.006 mPa·s
CC(=O)O [acetic acid] + CCOC(C)=O,mass density,"293.15 K, x1 = 0.0697",907.35 ± 0.3 kg/m3
same,speed of sound,"293.15 K, x1 = 0.0697",1165 ± 1 m/s
same,viscosity,"293.15 K, x1 = 0.0697",0.473 ± 0.007 mPa·s
same,mass density,"293.15 K, x1 = 0.0988",910.56 ± 0.3 kg/m3
same,speed of sound,"293.15 K, x1 = 0.0988",1166 ± 1 m/s
same,viscosity,"293.15 K, x1 = 0.0988",0.485 ± 0.007 mPa·s
same,mass density,"293.15 K, x1 = 0.196",920.61 ± 0.3 kg/m3
same,speed of sound,"293.15 K, x1 = 0.196",1166 ± 1 m/s
same,viscosity,"293.15 K, x1 = 0.196",0.523 ± 0.007 mPa·s
same,mass density,"293.15 K, x1 = 0.2944",931.46 ± 0.31 kg/m3
same,speed of sound,"293.15 K, x1 = 0.2944",1165 ± 1 m/s
same,viscosity,"293.15 K, x1 = 0.2944",0.561 ± 0.008 mPa·s
same,mass density,"293.15 K, x1 = 0.3968",943.68 ± 0.33 kg/m3
same,speed of sound,"293.15 K, x1 = 0.3968",1165 ± 1 m/s
same,viscosity,"293.15 K, x1 = 0.3968",0.617 ± 0.009 mPa·s
same,mass density,"293.15 K, x1 = 0.5007",957.31 ± 0.36 kg/m3
same,speed of sound,"293.15 K, x1 = 0.5007",1163 ± 2 m/s
same,viscosity,"293.15 K, x1 = 0.5007",0.668 ± 0.009 mPa·s
same,mass density,"293.15 K, x1 = 0.5967",971.28 ± 0.38 kg/m3
same,speed of sound,"293.15 K, x1 = 0.5967",1162 ± 2 m/s
same,viscosity,"293.15 K, x1 = 0.5967",0.731 ± 0.01 mPa·s
same,mass density,"293.15 K, x1 = 0.7",987.79 ± 0.41 kg/m3
same,speed of sound,"293.15 K, x1 = 0.7",1159 ± 2 m/s
same,viscosity,"293.15 K, x1 = 0.7",0.817 ± 0.011 mPa·s
same,mass density,"293.15 K, x1 = 0.7989",1005.47 ± 0.45 kg/m3
same,speed of sound,"293.15 K, x1 = 0.7989",1157 ± 2 m/s
same,viscosity,"293.15 K, x1 = 0.7989",0.912 ± 0.012 mPa·s
same,mass density,"293.15 K, x1 = 0.8993",1025.8 ± 0.51 kg/m3
same,speed of sound,"293.15 K, x1 = 0.8993",1153 ± 2 m/s
same,viscosity,"293.15 K, x1 = 0.8993",1.052 ± 0.014 mPa·s
same,mass density,"293.15 K, x1 = 0.9493",1037.09 ± 0.54 kg/m3
same,speed of sound,"293.15 K, x1 = 0.9493",1152 ± 2 m/s
same,viscosity,"293.15 K, x1 = 0.9493",1.113 ± 0.015 mPa·s
same,mass density,"293.15 K, x1 = 1",1049.3 ± 0.57 kg/m3
same,speed of sound,"293.15 K, x1 = 1",1149 ± 2 m/s
same,viscosity,"293.15 K, x1 = 1",1.211 ± 0.016 mPa·s
same,mass density,"298.15 K, x1 = 0.0697",901.3 ± 0.31 kg/m3
same,speed of sound,"298.15 K, x1 = 0.0697",1143 ± 1 m/s
same,viscosity,"298.15 K, x1 = 0.0697",0.446 ± 0.007 mPa·s
same,mass density,"298.15 K, x1 = 0.0988",904.53 ± 0.31 kg/m3
same,speed of sound,"298.15 K, x1 = 0.0988",1144 ± 1 m/s
same,viscosity,"298.15 K, x1 = 0.0988",0.458 ± 0.007 mPa·s
same,mass density,"298.15 K, x1 = 0.196",914.62 ± 0.31 kg/m3
same,speed of sound,"298.15 K, x1 = 0.196",1144 ± 1 m/s
same,viscosity,"298.15 K, x1 = 0.196",0.493 ± 0.007 mPa·s
same,mass density,"298.15 K, x1 = 0.2944",925.5 ± 0.32 kg/m3
same,speed of sound,"298.15 K, x1 = 0.2944",1144 ± 1 m/s
same,viscosity,"298.15 K, x1 = 0.2944",0.528 ± 0.007 mPa·s
same,mass density,"298.15 K, x1 = 0.3968",937.74 ± 0.34 kg/m3
same,speed of sound,"298.15 K, x1 = 0.3968",1143 ± 1 m/s
same,viscosity,"298.15 K, x1 = 0.3968",0.577 ± 0.008 mPa·s
same,mass density,"298.15 K, x1 = 0.5007",951.4 ± 0.36 kg/m3
same,speed of sound,"298.15 K, x1 = 0.5007",1142 ± 2 m/s
same,viscosity,"298.15 K, x1 = 0.5007",0.627 ± 0.009 mPa·s
same,mass density,"298.15 K, x1 = 0.5967",965.4 ± 0.38 kg/m3
same,speed of sound,"298.15 K, x1 = 0.5967",1141 ± 2 m/s
same,viscosity,"298.15 K, x1 = 0.5967",0.684 ± 0.009 mPa·s
same,mass density,"298.15 K, x1 = 0.7",981.94 ± 0.41 kg/m3
same,speed of sound,"298.15 K, x1 = 0.7",1140 ± 2 m/s
same,viscosity,"298.15 K, x1 = 0.7",0.762 ± 0.01 mPa·s
same,mass density,"298.15 K, x1 = 0.7989",999.66 ± 0.45 kg/m3
same,speed of sound,"298.15 K, x1 = 0.7989",1137 ± 2 m/s
same,viscosity,"298.15 K, x1 = 0.7989",0.848 ± 0.012 mPa·s
same,mass density,"298.15 K, x1 = 0.8993",1020.06 ± 0.5 kg/m3
same,speed of sound,"298.15 K, x1 = 0.8993",1135 ± 2 m/s
same,viscosity,"298.15 K, x1 = 0.8993",0.975 ± 0.013 mPa·s
same,mass density,"298.15 K, x1 = 0.9493",1031.4 ± 0.53 kg/m3
same,speed of sound,"298.15 K, x1 = 0.9493",1134 ± 2 m/s
same,viscosity,"298.15 K, x1 = 0.9493",1.031 ± 0.014 mPa·s
same,mass density,"298.15 K, x1 = 1",1043.65 ± 0.56 kg/m3
same,speed of sound,"298.15 K, x1 = 1",1132 ± 2 m/s
same,viscosity,"298.15 K, x1 = 1",1.115 ± 0.015 mPa·s
same,mass density,"303.15 K, x1 = 0.0697",895.2 ± 0.31 kg/m3
same,speed of sound,"303.15 K, x1 = 0.0697",1121 ± 1 m/s
same,viscosity,"303.15 K, x1 = 0.0697",0.422 ± 0.006 mPa·s
same,mass density,"303.15 K, x1 = 0.0988",898.44 ± 0.31 kg/m3
same,speed of sound,"303.15 K, x1 = 0.0988",1122 ± 1 m/s
same,viscosity,"303.15 K, x1 = 0.0988",0.433 ± 0.006 mPa·s
same,mass density,"303.15 K, x1 = 0.196",908.59 ± 0.32 kg/m3
same,speed of sound,"303.15 K, x1 = 0.196",1123 ± 1 m/s
same,viscosity,"303.15 K, x1 = 0.196",0.465 ± 0.007 mPa·s
same,mass density,"303.15 K, x1 = 0.2944",919.49 ± 0.33 kg/m3
same,speed of sound,"303.15 K, x1 = 0.2944",1123 ± 1 m/s
same,viscosity,"303.15 K, x1 = 0.2944",0.498 ± 0.007 mPa·s
same,mass density,"303.15 K, x1 = 0.3968",931.77 ± 0.34 kg/m3
same,speed of sound,"303.15 K, x1 = 0.3968",1123 ± 1 m/s
same,viscosity,"303.15 K, x1 = 0.3968",0.541 ± 0.008 mPa·s
same,mass density,"303.15 K, x1 = 0.5007",945.46 ± 0.36 kg/m3
same,speed of sound,"303.15 K, x1 = 0.5007",1122 ± 1 m/s
same,viscosity,"303.15 K, x1 = 0.5007",0.589 ± 0.008 mPa·s
same,mass density,"303.15 K, x1 = 0.5967",959.5 ± 0.39 kg/m3
same,speed of sound,"303.15 K, x1 = 0.5967",1121 ± 2 m/s
same,viscosity,"303.15 K, x1 = 0.5967",0.642 ± 0.009 mPa·s
same,mass density,"303.15 K, x1 = 0.7",976.09 ± 0.41 kg/m3
same,speed of sound,"303.15 K, x1 = 0.7",1120 ± 2 m/s
same,viscosity,"303.15 K, x1 = 0.7",0.714 ± 0.01 mPa·s
same,mass density,"303.15 K, x1 = 0.7989",993.85 ± 0.45 kg/m3
same,speed of sound,"303.15 K, x1 = 0.7989",1119 ± 2 m/s
same,viscosity,"303.15 K, x1 = 0.7989",0.792 ± 0.011 mPa·s
same,mass density,"303.15 K, x1 = 0.8993",1014.32 ± 0.5 kg/m3
same,speed of sound,"303.15 K, x1 = 0.8993",1117 ± 2 m/s
same,viscosity,"303.15 K, x1 = 0.8993",0.91 ± 0.012 mPa·s
same,mass density,"303.15 K, x1 = 0.9493",1025.69 ± 0.53 kg/m3
same,speed of sound,"303.15 K, x1 = 0.9493",1116 ± 2 m/s
same,viscosity,"303.15 K, x1 = 0.9493",0.958 ± 0.013 mPa·s
same,mass density,"303.15 K, x1 = 1",1038 ± 0.56 kg/m3
same,speed of sound,"303.15 K, x1 = 1",1115 ± 2 m/s
same,viscosity,"303.15 K, x1 = 1",1.034 ± 0.014 mPa·s
